Values of other authors, collected in PMC8513935.
Each block holds one compound with its values, some of them ahead of it.

Assays:
[1] = log P octanol/water from commercial databases, averaged (the ESI); conditions: Octanol (wet), 25 C
[2] = derived by the authors as gas->solvent minus gas->water (a hypothetical dry solvent; the ESI), not a two-phase measurement
[3] = experimental, compiled by the authors from the literature (the ESI cites the sources)

- log K of transfer, water to solvent [1]: 0.65 log10 K
- log K of transfer, water to solvent ([2]; 2-Methylpropan-2-ol, 25 C): 0.77 log10 K
- log K of transfer, water to solvent ([2]; Butan-1-ol, 25 C): 0.64 log10 K
- log K of transfer, water to solvent ([2]; Butan-2-ol, 25 C): 0.7 log10 K
- log K of transfer, water to solvent ([2]; Butanone, 25 C): 0.41 log10 K
- log K of transfer, water to solvent ([2]; CCl4, 25 C): -0.54 log10 K
- log K of transfer, water to solvent ([2]; Chlorobenzene, 25 C): -0.27 log10 K
- log K of transfer, water to solvent ([2]; Chloroform, 25 C): 0.3 log10 K
- log K of transfer, water to solvent ([2]; Decan-1-ol, 25 C): 0.506 log10 K
- log K of transfer, water to solvent ([2]; Hexadecane, 25 C): -1.05 log10 K
- log K of transfer, water to solvent ([2]; Hexane, 25 C): -0.783 log10 K
- log K of transfer, water to solvent ([2]; Octan-1-ol(dry), 25 C): 0.41 log10 K
- log K of transfer, gas to solvent ([3]; 2-Methylpropan-2-ol, 25 C): 4.16 log10 K
- log K of transfer, gas to solvent ([3]; Butan-1-ol, 25 C): 4.03 log10 K
- log K of transfer, gas to solvent ([3]; Butan-2-ol, 25 C): 4.09 log10 K
- log K of transfer, gas to solvent ([3]; Butanone, 25 C): 3.8 log10 K
- log K of transfer, gas to solvent ([3]; CCl4, 25 C): 2.85 log10 K
- log K of transfer, gas to solvent ([3]; Chlorobenzene, 25 C): 3.12 log10 K
- log K of transfer, gas to solvent ([3]; Chloroform, 25 C): 3.69 log10 K
- log K of transfer, gas to solvent ([3]; Decan-1-ol, 25 C): 3.89 log10 K
- log K of transfer, gas to solvent ([3]; Hexadecane, 25 C): 2.34 log10 K
- log K of transfer, gas to solvent ([3]; Hexane, 25 C): 2.61 log10 K
- log K of transfer, gas to solvent ([3]; Octan-1-ol, 25 C): 3.8 log10 K
- log K of transfer, gas to solvent ([3]; Water, 25 C): 3.39 log10 K
SMILES: CCC(C)O (stereo not shown)

SMILES: CCCl
- log K of transfer, water to solvent [1]: 1.43 log10 K
- log K of transfer, water to solvent ([2]; 2-Methylpropan-1-ol, 25 C): 1.32 log10 K
- log K of transfer, water to solvent ([2]; 2-Methylpropan-2-ol, 25 C): 1.33 log10 K
- log K of transfer, water to solvent ([2]; 3-Methylbutan-1-ol, 25 C): 1.32 log10 K
- log K of transfer, water to solvent ([2]; Butan-1-ol, 25 C): 1.37 log10 K
- log K of transfer, water to solvent ([2]; Butan-2-ol, 25 C): 1.31 log10 K
- log K of transfer, water to solvent ([2]; Chlorobenzene, 25 C): 1.71 log10 K
- log K of transfer, water to solvent ([2]; Hexadecane, 25 C): 1.22 log10 K
- log K of transfer, water to solvent ([2]; Hexane, 25 C): 1.45 log10 K
- log K of transfer, water to solvent ([2]; Methanol, 25 C): 1.47 log10 K
- log K of transfer, water to solvent ([2]; Pentan-1-ol, 25 C): 1.35 log10 K
- log K of transfer, water to solvent ([2]; Propan-1-ol, 25 C): 1.4 log10 K
- log K of transfer, water to solvent ([2]; Propan-2-ol, 25 C): 1.35 log10 K
- log K of transfer, gas to solvent ([3]; 2-Methylpropan-1-ol, 25 C): 1.78 log10 K
- log K of transfer, gas to solvent ([3]; 2-Methylpropan-2-ol, 25 C): 1.79 log10 K
- log K of transfer, gas to solvent ([3]; 3-Methylbutan-1-ol, 25 C): 1.78 log10 K
- log K of transfer, gas to solvent ([3]; Butan-1-ol, 25 C): 1.83 log10 K
- log K of transfer, gas to solvent ([3]; Butan-2-ol, 25 C): 1.77 log10 K
- log K of transfer, gas to solvent ([3]; Chlorobenzene, 25 C): 2.17 log10 K
- log K of transfer, gas to solvent ([3]; Hexadecane, 25 C): 1.68 log10 K
- log K of transfer, gas to solvent ([3]; Hexane, 25 C): 1.91 log10 K
- log K of transfer, gas to solvent ([3]; Methanol, 25 C): 1.93 log10 K
- log K of transfer, gas to solvent ([3]; Pentan-1-ol, 25 C): 1.81 log10 K
- log K of transfer, gas to solvent ([3]; Propan-1-ol, 25 C): 1.86 log10 K
- log K of transfer, gas to solvent ([3]; Propan-2-ol, 25 C): 1.81 log10 K
- log K of transfer, gas to solvent ([3]; Water, 25 C): 0.46 log10 K

- log K of transfer, water to solvent [1]: 3.19 log10 K
- log K of transfer, water to solvent ([2]; 2-Methylpropan-2-ol, 25 C): 3.63 log10 K
- log K of transfer, water to solvent ([2]; Cyclohexanone, 25 C): 3.64 log10 K
- log K of transfer, water to solvent ([2]; Hexadecane, 25 C): 3.76 log10 K
- log K of transfer, gas to solvent ([3]; 2-Methylpropan-2-ol, 25 C): 1.88 log10 K
- log K of transfer, gas to solvent ([3]; Cyclohexanone, 25 C): 1.89 log10 K
- log K of transfer, gas to solvent ([3]; Hexadecane, 25 C): 2.01 log10 K
- log K of transfer, gas to solvent ([3]; Water, 25 C): -1.75 log10 K
SMILES: CCC(C)C

SMILES: CCCCl
- log K of transfer, water to solvent [1]: 2.04 log10 K
- log K of transfer, water to solvent ([2]; 1,2-Dichloroethane, 25 C): 2.47 log10 K
- log K of transfer, water to solvent ([2]; Butan-1-ol, 25 C): 2.08 log10 K
- log K of transfer, water to solvent ([2]; Butanone, 25 C): 2.46 log10 K
- log K of transfer, water to solvent ([2]; CCl4, 25 C): 2.47 log10 K
- log K of transfer, water to solvent ([2]; Chloroform, 25 C): 2.41 log10 K
- log K of transfer, water to solvent ([2]; Cyclohexanone, 25 C): 2.45 log10 K
- log K of transfer, water to solvent ([2]; Hexadecane, 25 C): 1.96 log10 K
- log K of transfer, water to solvent ([2]; Hexane, 25 C): 2.23 log10 K
- log K of transfer, water to solvent ([2]; Octan-1-ol(dry), 25 C): 2 log10 K
- log K of transfer, gas to solvent ([3]; 1,2-Dichloroethane, 25 C): 2.71 log10 K
- log K of transfer, gas to solvent ([3]; Butan-1-ol, 25 C): 2.32 log10 K
- log K of transfer, gas to solvent ([3]; Butanone, 25 C): 2.7 log10 K
- log K of transfer, gas to solvent ([3]; CCl4, 25 C): 2.71 log10 K
- log K of transfer, gas to solvent ([3]; Chloroform, 25 C): 2.65 log10 K
- log K of transfer, gas to solvent ([3]; Cyclohexanone, 25 C): 2.69 log10 K
- log K of transfer, gas to solvent ([3]; Hexadecane, 25 C): 2.2 log10 K
- log K of transfer, gas to solvent ([3]; Hexane, 25 C): 2.47 log10 K
- log K of transfer, gas to solvent ([3]; Octan-1-ol, 25 C): 2.24 log10 K
- log K of transfer, gas to solvent ([3]; Water, 25 C): 0.24 log10 K

- log K of transfer, water to solvent [1]: 1.68 log10 K
- log K of transfer, water to solvent ([2]; Benzene, 25 C): 1.32 log10 K
- log K of transfer, water to solvent ([2]; Chloroform, 25 C): 2.31 log10 K
- log K of transfer, water to solvent ([2]; Cyclohexane, 25 C): 0.67 log10 K
- log K of transfer, water to solvent ([2]; Hexadecane, 25 C): 0.39 log10 K
- log K of transfer, gas to solvent ([3]; Benzene, 25 C): 4.69 log10 K
- log K of transfer, gas to solvent ([3]; Chloroform, 25 C): 5.68 log10 K
- log K of transfer, gas to solvent ([3]; Cyclohexane, 25 C): 4.04 log10 K
- log K of transfer, gas to solvent ([3]; Hexadecane, 25 C): 3.76 log10 K
- log K of transfer, gas to solvent ([3]; Water, 25 C): 3.37 log10 K
SMILES: Cc1cccc(C)n1

SMILES: ClC(Cl)(Cl)Cl
- log K of transfer, water to solvent [1]: 2.83 log10 K
- log K of transfer, water to solvent ([2]; 1,2-Dichloroethane, 25 C): 3.1 log10 K
- log K of transfer, water to solvent ([2]; 2-Methylpropan-2-ol, 25 C): 2.8 log10 K
- log K of transfer, water to solvent ([2]; Acetone, 25 C): 3.1 log10 K
- log K of transfer, water to solvent ([2]; Acetonitrile, 25 C): 2.74 log10 K
- log K of transfer, water to solvent ([2]; Butan-1-ol, 25 C): 2.9 log10 K
- log K of transfer, water to solvent ([2]; Butanone, 25 C): 3.1 log10 K
- log K of transfer, water to solvent ([2]; CCl4, 25 C): 3.3 log10 K
- log K of transfer, water to solvent ([2]; Chloroform, 25 C): 3.31 log10 K
- log K of transfer, water to solvent ([2]; Cyclohexanone, 25 C): 3.23 log10 K
- log K of transfer, water to solvent ([2]; Di-n-butyl ether, 25 C): 3.11 log10 K
- log K of transfer, water to solvent ([2]; Diethyl Ether, 25 C): 3.28 log10 K
- log K of transfer, water to solvent ([2]; Ethanol, 25 C): 2.81 log10 K
- log K of transfer, water to solvent ([2]; Hexadecane, 25 C): 2.88 log10 K
- log K of transfer, water to solvent ([2]; Hexan-1-ol, 25 C): 2.87 log10 K
- log K of transfer, water to solvent ([2]; Hexane, 25 C): 3.09 log10 K
- log K of transfer, water to solvent ([2]; Methanol, 25 C): 2.72 log10 K
- log K of transfer, water to solvent ([2]; Octan-1-ol(dry), 25 C): 2.85 log10 K
- log K of transfer, water to solvent ([2]; Propan-1-ol, 25 C): 2.81 log10 K
- log K of transfer, water to solvent ([2]; Propionitrile, 25 C): 2.92 log10 K
- log K of transfer, water to solvent ([2]; Tetrahydrofuran, 25 C): 3.47 log10 K
- log K of transfer, gas to solvent ([3]; 1,2-Dichloroethane, 25 C): 3.04 log10 K
- log K of transfer, gas to solvent ([3]; 2-Methylpropan-2-ol, 25 C): 2.74 log10 K
- log K of transfer, gas to solvent ([3]; Acetonitrile, 25 C): 2.68 log10 K
- log K of transfer, gas to solvent ([3]; Butan-1-ol, 25 C): 2.84 log10 K
- log K of transfer, gas to solvent ([3]; Butanone, 25 C): 3.04 log10 K
- log K of transfer, gas to solvent ([3]; CCl4, 25 C): 3.24 log10 K
- log K of transfer, gas to solvent ([3]; Chloroform, 25 C): 3.25 log10 K
- log K of transfer, gas to solvent ([3]; Cyclohexanone, 25 C): 3.17 log10 K
- log K of transfer, gas to solvent ([3]; Di-n-butyl ether, 25 C): 3.05 log10 K
- log K of transfer, gas to solvent ([3]; Diethyl Ether, 25 C): 3.22 log10 K
- log K of transfer, gas to solvent ([3]; Ethanol, 25 C): 2.75 log10 K
- log K of transfer, gas to solvent ([3]; Hexadecane, 25 C): 2.82 log10 K
- log K of transfer, gas to solvent ([3]; Hexan-1-ol, 25 C): 2.81 log10 K
- log K of transfer, gas to solvent ([3]; Hexane, 25 C): 3.03 log10 K
- log K of transfer, gas to solvent ([3]; Methanol, 25 C): 2.66 log10 K
- log K of transfer, gas to solvent ([3]; Octan-1-ol, 25 C): 2.79 log10 K
- log K of transfer, gas to solvent ([3]; Propan-1-ol, 25 C): 2.75 log10 K
- log K of transfer, gas to solvent ([3]; Propanone, 25 C): 3.04 log10 K
- log K of transfer, gas to solvent ([3]; Propionitrile, 25 C): 2.86 log10 K
- log K of transfer, gas to solvent ([3]; Tetrahydrofuran, 25 C): 3.41 log10 K
- log K of transfer, gas to solvent ([3]; Water, 25 C): -0.06 log10 K
